Measurements published in patent publication EP2607478A1, “Phenanthroline treated MSC” (Universiteit Twente, priority 2011, dated 2013).

System: MSCs
Experiment: Whole genome expression analysis (Illumina microarray) of treated MSCs
Format: cell-based, Human
Procedure: MSCs were seeded in T25 flasks at 5000 cells/cm^2 and allowed to attach overnight in proliferation medium. […] After 48 hours, RNA was isolated as described above. From 500 ng of RNA, cRNA was synthesized using the Illumina TotalPrep RNA amplification Kit (Ambion), according to the manufacturer's protocol and the quality of RNA and cRNA was verified on a Bioanalyzer 2100 (Agilent). Microarrays were performed using Illumina HT-12 v4 expression Beadchips, according to the manufacturer's protocol. Briefly, 750 ng of cRNA was hybridized on the array overnight after which the array was washed and blocked. Then, by addition of streptavidin Cy-3 a fluorescent signal was developed. Arrays were scanned on an Illumina iScan reader and raw intensity values were background corrected in GenomeStudio (Illumina). Further data processing and statistical testing were performed with R and Bioconductor statistical software (www.bioconductor.org), using package lumi. Raw intensity values were transformed using variance stabilization and a quantile normalization was performed. A linear modelling approach with empirical Bayesian methods, as implemented in Limma package (54), was applied for differential expression analysis of the resulting probe-level expression values. A gene list, containing only those genes with an absolute 1.5-fold change between different treatments, was uploaded to Ingenuity Pathway Analysis (IPA) software and used for core analysis. Pathways or networks with a p-value of 0.05 were considered statistically significant.

c1cnc2c(c1)ccc1cccnc12 [PHE, 1, 10-phenanthroline]
logFC(D142_PHE - D142_BAS) DLX5 (ProbeID ILMN_1759598): -2,28
logFC(D142_PHE - D142_BAS) C4orf18 (ProbeID ILMN_1761941): -2,15
logFC(D142_PHE - D142_BAS) AK3L1 (ProbeID ILMN_1764090): 3,40
logFC(D142_PHE - D142_BAS) JARID2 (ProbeID ILMN_1764177): 2,12
logFC(D142_PHE - D142_BAS) MUM1 (ProbeID ILMN_1764764): -2,05
logFC(D142_PHE - D142_BAS) OLFML2B (ProbeID ILMN_1765557, PHE vs BAS): -3,04
logFC(D142_PHE - D142_BAS) LOC399942 (ProbeID ILMN_1765701, PHE vs BAS): -2,98
logFC(D142_PHE - D142_BAS) ENO2 (ProbeID ILMN_1765796): 4,72
logFC(D142_PHE - D142_BAS) KCNK2 (ProbeID ILMN_1765990, PHE vs BAS): -2,82
logFC(D142_PHE - D142_BAS) C10orf10 (ProbeID ILMN_1767556): 3,71
logFC(D142_PHE - D142_BAS) HIST2H2AC (ProbeID ILMN_1768973): 3,39
logFC(D142_PHE - D142_BAS) ISOC2 (ProbeID ILMN_1769158): -2,08
logFC(D142_PHE - D142_BAS) KRT34 (ProbeID ILMN_1770228): 2,77
logFC(D142_PHE - D142_BAS) CNN2 (ProbeID ILMN_1770290, PHE vs BAS): -3,30
logFC(D142_PHE - D142_BAS) ANGPTL2 (ProbeID ILMN_1772612, PHE vs BAS): -2,93
logFC(D142_PHE - D142_BAS) EML3 (ProbeID ILMN_1772644): -2,23
logFC(D142_PHE - D142_BAS) ZNF395 (ProbeID ILMN_1772876): 3,66
logFC(D142_PHE - D142_BAS) GAS1 (ProbeID ILMN_1772910, PHE vs BAS): -3,75
logFC(D142_PHE - D142_BAS) C16orf72 (ProbeID ILMN_1773407): 2,40
logFC(D142_PHE - D142_BAS) LOC441054 (ProbeID ILMN_1774390): 2,68
logFC(D142_PHE - D142_BAS) FBLN2 (ProbeID ILMN_1774602, PHE vs BAS): -2,40
logFC(D142_PHE - D142_BAS) SMOX (ProbeID ILMN_1775380): 2,29
logFC(D142_PHE - D142_BAS) SLC2A3 (ProbeID ILMN_1775708): 3,23
logFC(D142_PHE - D142_BAS) BTG1 (ProbeID ILMN_1775743): 2,36
logFC(D142_PHE - D142_BAS) MYL9 (ProbeID ILMN_1776953): -2,25
logFC(D142_PHE - D142_BAS) STAT1 (ProbeID ILMN_1777325): -2,01
logFC(D142_PHE - D142_BAS) LOC731007 (ProbeID ILMN_1777499): 2,46
logFC(D142_PHE - D142_BAS) KCTD11 (ProbeID ILMN_1777513): 3,02
logFC(D142_PHE - D142_BAS) LOC644774 (ProbeID ILMN_1779258): 3,09
logFC(D142_PHE - D142_BAS) CPA4 (ProbeID ILMN_1784294): 5,44
logFC(D142_PHE - D142_BAS) TUBA4A (ProbeID ILMN_1784300): 2,80
logFC(D142_PHE - D142_BAS) SPOCD1 (ProbeID ILMN_1784948, PHE vs BAS): -3,46
logFC(D142_PHE - D142_BAS) PRKD1 (ProbeID ILMN_1785891, PHE vs BAS): -2,51
logFC(D142_PHE - D142_BAS) UHRF1 (ProbeID ILMN_1786065): -2,25
logFC(D142_PHE - D142_BAS) PSME2 (ProbeID ILMN_1786612, PHE vs BAS): -2,64
logFC(D142_PHE - D142_BAS) MFAP2 (ProbeID ILMN_1787981): -2,29
logFC(D142_PHE - D142_BAS) COL11A1 (ProbeID ILMN_1789507, PHE vs BAS): -3,53
logFC(D142_PHE - D142_BAS) GBE1 (ProbeID ILMN_1789702): 2,68
logFC(D142_PHE - D142_BAS) Mar-04 (ProbeID ILMN_1789991): 2,06
logFC(D142_PHE - D142_BAS) PRRX2 (ProbeID ILMN_1790338, PHE vs BAS): -2,93
logFC(D142_PHE - D142_BAS) C6orf125 (ProbeID ILMN_1790461): -2,25
logFC(D142_PHE - D142_BAS) LUM (ProbeID ILMN_1790529, PHE vs BAS): -3,46
logFC(D142_PHE - D142_BAS) CRISPLD2 (ProbeID ILMN_1790689): -2,32
logFC(D142_PHE - D142_BAS) PNMA2 (ProbeID ILMN_1790778): 2,46
logFC(D142_PHE - D142_BAS) CXCL12 (ProbeID ILMN_1791447, PHE vs BAS): -3,48
logFC(D142_PHE - D142_BAS) DPYSL4 (ProbeID ILMN_1792356): 3,91
logFC(D142_PHE - D142_BAS) TMEM158 (ProbeID ILMN_1792455): 3,06
logFC(D142_PHE - D142_BAS) HIST1H2AC (ProbeID ILMN_1792689): 2,10
logFC(D142_PHE - D142_BAS) SERTAD1 (ProbeID ILMN_1794017): 2,93
logFC(D142_PHE - D142_BAS) NDUFS8 (ProbeID ILMN_1794132): -2,07
logFC(D142_PHE - D142_BAS) HAS3 (ProbeID ILMN_1794501, PHE vs BAS): -2,42
logFC(D142_PHE - D142_BAS) CAMK2N1 (ProbeID ILMN_1794863): 2,88
logFC(D142_PHE - D142_BAS) OKL38 (ProbeID ILMN_1795963): 2,72
logFC(D142_PHE - D142_BAS) HIST1H2BK (ProbeID ILMN_1796179): 2,23
logFC(D142_PHE - D142_BAS) GDF5 (ProbeID ILMN_1796471): -2,25
logFC(D142_PHE - D142_BAS) C3orf58 (ProbeID ILMN_1797372): 2,45
logFC(D142_PHE - D142_BAS) HMGCS1 (ProbeID ILMN_1797728): -2,20
logFC(D142_PHE - D142_BAS) AK3L1 (ProbeID ILMN_1798249): 3,18
logFC(D142_PHE - D142_BAS) CXCR7 (ProbeID ILMN_1798360): 2,96
logFC(D142_PHE - D142_BAS) MCM6 (ProbeID ILMN_1798654): -2,31
logFC(D142_PHE - D142_BAS) RARRES1 (ProbeID ILMN_1800091): -2,22
logFC(D142_PHE - D142_BAS) HMOX1 (ProbeID ILMN_1800512): 2,82
logFC(D142_PHE - D142_BAS) LDB2 (ProbeID ILMN_1800697, PHE vs BAS): -2,38
logFC(D142_PHE - D142_BAS) PLIN2 (ProbeID ILMN_1801077): 3,49
logFC(D142_PHE - D142_BAS) RLF (ProbeID ILMN_1801156): 2,05
logFC(D142_PHE - D142_BAS) SIAH2 (ProbeID ILMN_1801313): 2,15
logFC(D142_PHE - D142_BAS) METRNL (ProbeID ILMN_1801610): 2,03
logFC(D142_PHE - D142_BAS) CCNB2 (ProbeID ILMN_1801939, PHE vs BAS): -2,66
logFC(D142_PHE - D142_BAS) GLT8D2 (ProbeID ILMN_1802654): -2,05
logFC(D142_PHE - D142_BAS) FAM162A (ProbeID ILMN_1803647): 2,36
logFC(D142_PHE - D142_BAS) CXCL12 (ProbeID ILMN_1803825, PHE vs BAS): -2,38
logFC(D142_PHE - D142_BAS) VEGFA (ProbeID ILMN_1803882): 4,07
logFC(D142_PHE - D142_BAS) SRXN1 (ProbeID ILMN_1804822): 2,32
logFC(D142_PHE - D142_BAS) SLC14A1 (ProbeID ILMN_1805561, PHE vs BAS): -2,57
logFC(D142_PHE - D142_BAS) PFKP (ProbeID ILMN_1805737): 2,32
logFC(D142_PHE - D142_BAS) TK1 (ProbeID ILMN_1806037): -2,14
logFC(D142_PHE - D142_BAS) SLC6A8 (ProbeID ILMN_1806349): 2,45
logFC(D142_PHE - D142_BAS) FMO3 (ProbeID ILMN_1808657, PHE vs BAS): -2,85
logFC(D142_PHE - D142_BAS) PGF (ProbeID ILMN_1809813): 3,28
logFC(D142_PHE - D142_BAS) NDRG1 (ProbeID ILMN_1809931): 4,06
logFC(D142_PHE - D142_BAS) P8 (ProbeID ILMN_1810560): 2,09
logFC(D142_PHE - D142_BAS) KIAA0367 (ProbeID ILMN_1810628): -2,12
logFC(D142_PHE - D142_BAS) PDE5A (ProbeID ILMN_1810836, PHE vs BAS): -3,04
logFC(D142_PHE - D142_BAS) LOC402221 (ProbeID ILMN_1811909): -2,18
logFC(D142_PHE - D142_BAS) FAM20A (ProbeID ILMN_1812091): -2,34
logFC(D142_PHE - D142_BAS) HIST1H2BK (ProbeID ILMN_1813314): 2,41
logFC(D142_PHE - D142_BAS) KIAA1199 (ProbeID ILMN_1813704, PHE vs BAS): -4,06
logFC(D142_PHE - D142_BAS) FKSG30 (ProbeID ILMN_1814998): -2,20
logFC(D142_PHE - D142_BAS) PIM1 (ProbeID ILMN_1815023): 2,29
logFC(D142_PHE - D142_BAS) PLAGL1 (ProbeID ILMN_1815121): 2,24
logFC(D142_PHE - D142_BAS) DHCR7 (ProbeID ILMN_1815626): -2,12
logFC(D142_PHE - D142_BAS) ERCC2 (ProbeID ILMN_1815859): -2,17
logFC(D142_PHE - D142_BAS) (ProbeID ILMN_1816244, no gene name printed): 2,02
